Experimental data as given in US20230043863A1, “HETEROAROMATIC DERIVATIVES FOR USE AS REGULATOR, PREPARATION METHOD THEREFOR AND USE THEREOF” (JIANGSU HANSOH PHARMACEUTICAL GROUP CO., LTD., priority 2018, published 2023).
Read-outs that look alike come from different tables or passages of the source.

Key:
[1] = Balb/C mouse pharmacokinetics (plasma, colon, ileum); type: in vivo; conditions: male, po, Balb/C mice, p.o. 5 mg/kg; for Cmax: read-out: Blood concentration Cmax; for AUC(0-t): read-out: Curve area AUC0-t; for AUC(0-inf): read-out: Curve area AUC0-∞; for half-life: read-out: Half life period t1/2 (converted); for MRT: read-out: Mean detention time MRT; for Tmax: read-out: Time to peak tmax
From the text: Balb/C mouse was used as the test animal, the pharmacokinetic behavior in mice (plasma and colon, ileum tissue) was studied after oral administering the embodiment 1, embodiment 60, embodiment 169, embodiment 170, embodiment 171, embodiment 179, embodiment 191, embodiment 213, embodiment 214, embodiment 237, embodiment 238, embodiment 244, embodiment 246, embodiment 247, embodiment 257, embodiment 260, embodiment 262, embodiment 263, embodiment 267, embodiment 277, embodiment 278, embodiment 279, embodiment 288, embodiment 295, embodiment 299 and embodiment 301 at a dose of 5 mg/kg. After analyzing the drug concentration in the colon and ileum, the ratio of the drug concentration in the colon to that in ileum, and the ratio of the drug concentration in the colon to that in the plasma, the compounds with excellent PK were selected for further research.
12 Balb/C mice in each group, male, Shanghai Jiesjie Experimental Animal Co., Ltd., animal production license number (SCXK (Shanghai) 2013-0006 N0.311620400001794).
12 Balb/C mice in each group, male; p.o. after one night fast; the dose was 5 mg/kg; the administration volume was 10 mL/kg.
At 0, 0.5, 1, 2, 3, 5 and 7 hours before and after the administration, the mice were executed by CO2 and 0.2 mL of blood was collected from the heart, placed in an EDTA-K2 test tube, and centrifuged at 6000 rpm at 4° C. for 6 minutes to separate the plasma, which was then stored at −80° C. The ileum was taken close to the cecum end with a length of about 4-5 cm, and the colon was also taken close to the cecum end with a length of about 2-3 cm, weighed and placed in a 2 mL centrifuge tube, then stored at −80° C.
1) 40 uL of plasma sample was precipitated by adding 160 uL of acetonitrile, mixed and centrifuged at 3500×g for 5-20 minutes.
2) 30 μL of plasma and intestinal homogenate sample were precipitated by adding 90 of acetonitrile containing internal standard (100 ng/mL), mixed and centrifuged at 13000 rpm for 8 minutes.
3) 70 μL of the supernatant solution after treatment was collected and 70 μL of water was added thereto, vortexed and mixed for 10 minutes, and then 20 μL was collected to analyze the concentration of the test compound by LC/MS/MS. LC/MS/MS analysis instrument: AB Sciex API 4000 Qtrap.
Liquid phase conditions: Shimadzu LC-20AD Pump
Chromatographic column: Agilent ZORBAX XDB-C18 (50×2.1 mm, 3.5 μm) mobile phase: 0.1% formic acid aqueous solution as A solution, acetonitrile as B solution
Elution time: 0-4.0 minutes, the eluent is as follows:
The main pharmacokinetic parameters were calculated with WinNonlin 6.1, and the results of mouse pharmacokinetic experiments are shown in Table 3:
NA refers to none detected or not being tested (the detection limit of blood concentration was 1 ng/mL, when the Cmax in the blood test is NA, then NA in the blood test index refers to none detected; when the Cmax in the blood test is higher than the quantitative limit 1 ng/mL, then NA in the blood test index refers to not being tested; NA in the tissues (colon and ileum) refers to not being tested).

[2] = tested on: C57BL/6 mouse colitis model induced by DSS; assay: C57BL/6 mouse colitis model induced by DSS, daily disease index; type: in vivo; conditions: po, 216 h, 10 mg/kg p.o. BID, Day 0-9, vs vehicle group, read-out: reduction ratio of DAI AUC
Protocol: To evaluate the drug efficacy of the embodiment compound on the C57BL/6 mouse colitis model induced by DSS (dextran sulfate sodium).
According to the weight of the animal, BioBook software was used to randomly group the animals on day −1 to ensure that the weight values of each group of animals were similar to reduce deviation, and the grouping and dosing regimen are shown in the following Table.
Drinking water containing DSS: an appropriate amount of DSS powder was dissolved in the autoclaved drinking water to prepare a 2% DSS solution.
On day −1, the animals were equally divided into 12 groups with 10 animals in each group. (Refer to Table 1 for specific grouping scheme)
From 9:00 on day 0 to 9:00 on day 6, the mice in groups 2 to 9 were given 2% DSS aqueous solution for 6 days (from day 0 to day 6), after which the mice were allowed to freely drink normal water for 3 days (from 9:00 on day 6 to before necropsy on day 9). The day of modeling was counted as day 0. The DSS aqueous solution was wrapped in tin foil to protect it from light. The DSS aqueous solution was replaced every 2 days.
The mice in group 1 are allowed to drink normal water freely for 9 days (from 9:00 on day 0 to before necropsy on day 9).
The recording frequency was once a day, and 4 levels were rated according to the following standards:
Bloody stool (0: negative; 4: positive);
Stool score (0: normal; 2: loose stool; 4: diarrhea)
Daily Disease Index (DAI) was obtained by dividing the sum the scores of the above 3 parts by 3. DAI-time (day) curve based on the daily DAI score was plotted, and the peak area (AUC) under the curve was calculated. The reduction ratio of DAI AUC was calculated by comparing the administration group with the vehicle group, with a calculation formula of (DAI AUCadministration group-DAI AUCvehicle)/DAI AUCVehicle×100%

Row | Compound | Cmax ([1]; plasma, blood) [ng/mL] | AUC(0-t) ([1]; plasma, blood) [ng·h/mL] | AUC(0-inf) ([1]; plasma, blood) [ng·h/mL] | half-life ([1]; plasma, blood) [h] | MRT ([1]; plasma, blood) [h] | Tmax ([1]; plasma, blood) [h] | Cmax ([1]; colon) [ng/mL] | AUC(0-t) ([1]; colon) [ng·h/mL] | MRT ([1]; colon) [h] | Tmax ([1]; colon) [h] | Cmax ([1]; ileum) [ng/mL] | AUC(0-t) ([1]; ileum) [ng·h/mL] | MRT ([1]; ileum) [h] | Tmax ([1]; ileum) [h] | AUC(0-inf) ([1]; ileum) [ng·h/mL] | half-life ([1]; ileum) [h] | AUC(0-inf) ([1]; colon) [ng·h/mL] | half-life ([1]; colon) [h] | change in vivo at 10 mg/kg [2] [%]
1 | Cc1cc(Nc2nc(N[C@@H]3C[C@H]4CC[C@@H](C3)N4CCC#N)nc3cc(Cl)ccc23)n[nH]1 [Embodiment 171, 3-((3-exo)-3-((7-chloro-4-((5-methyl-1H-pyrazol-3-yl)amino)quinazolin-2-yl)amino)-8-azabicyclo[3.2.1]oct-8-yl)propionitrile] | 8.91 | 23.4 | 26.7 | 1.93 | 3.05 | 2 | 438 | 2010 | 4.24 | 3 | 17000 | 79800 | 3.35 | 3 |  |  |  |  | 
2 | Cc1cnc(Nc2cc3ncccc3c(N[C@@H]3C[C@H]4CC[C@@H](C3)N4CCC#N)n2)s1 [Embodiment 1, 3-((3-exo)-3-((7-((5-methylthioazol-2-yl)amino)-1,6-diazanaphthalen-5-yl)amino)-8-azabicyclo[3.2.1]oct-8-yl)propionitrile] | 25.6 | 58.1 | 61.5 | 1.75 | 2.03 | 0.5 | 2720 | 8320 | 3.68 | 3 | 27100 | 90500 | 2.84 | 3 | 93700 | 1.08 |  |  | 
3 | Cc1cc(Nc2nc(N[C@@H]3C[C@H]4CCC[C@@H](C3)N4S(=O)(=O)N3CC(C#N)C3)nc3sccc23)n[nH]1 [Embodiment 238] | 12.7 | 19.6 |  |  | 1.47 | 1 | 1320 | 5270 | 4.16 | 3 | 21000 | 36600 | 1.29 | 1 | 36600 | 0.58 | 7380 | 2.89 | 
4 | Cc1cc(Nc2nc(N[C@@H]3C[C@H]4CC[C@@H](C3)N4CCC#N)nc3ccsc23)n[nH]1 [Embodiment 60, 3-((3-exo)-3-((4-((5-methyl-1H-pyrazol-3-yl)amino)thieno[3,2-d]pyrimidin-2-yl)amino)-8-azabicyclo[3.2.1]oct-8-yl)propionitrile] | 10.3 | 31.1 | 32.9 | 1.41 | 2.58 | 2 | 2310 | 9130 | 3.83 | 5 | 26100 | 98000 | 2.49 | 1 | 103000 | 1.26 |  |  | -20.8
5 | Cc1cc(Nc2nc(N[C@@H]3C[C@H]4CC[C@@H](C3)N4S(=O)(=O)N3CC(C#N)C3)nc3cc(Cl)ccc23)n[nH]1 [Embodiment 214] | 1.6 | 3.59 |  |  | 1.82 | 3 | 5590 | 19500 | 4.4 | 5 | 24800 | 49300 | 1.52 | 1 | 49500 | 0.79 |  |  | -28.9
6 | Cc1cc(Nc2nc(N(C)[C@@H]3C[C@H]4CCC[C@@H](C3)N4C(=O)CN3CCN(C)CC3)nc3sccc23)n[nH]1 [Embodiment 257, 1-((3-exo)-3-(methyl(4-((5-methyl-1H-pyrazol-3-yl)amino)thieno[2,3-d]pyrimidin-2-yl)amino)-9-azabicyclo[3.3.1]non-9-yl)-2-(4-methylpiperazin-1-yl)ethane-1-one] | 33.9 | 64.7 | 64.8 | 1.22 | 2.18 | 1 | 3990 | 12300 | 4.24 | 5 | 25800 | 104000 | 3.07 | 3 | 123000 | 1.98 |  |  | 
7 | Cc1cc(Nc2nc(N[C@@H]3C[C@H]4CC[C@@H](C3)N4S(=O)(=O)N3CC(C#N)C3)nc3sccc23)n[nH]1 [Embodiment 237, 1-(((3-exo)-3-((4-((5-methyl-1H-pyrazol-3-yl)amino)thieno[2,3-d]pyrimidin-2-yl)amino)-8-azabicyclo[3.2.1]oct-8-yl)sulfonyl)azetindin-3-formonitrile] | 7.12 | 11 |  |  | 1.73 | 2 | 2210 | 6460 | 3.43 | 3 | 4140 | 15300 | 2.43 | 3 | 15400 | 0.55 | 7240 | 1.52 | 
8 | Cc1cc(Nc2nc(N[C@@H]3C[C@H]4CC[C@@H](C3)N4CCC#N)nc3sc(C)cc23)n[nH]1 [Embodiment 277, 3-((3-exo)-3-((6-methyl-4-((5-methyl-1H-pyrazol-3-yl)amino)thieno[2,3-d]pyrimidin-2-yl)amino)-8-azabicyclo[3.2.1]oct-8-yl)propionitrile] | 12 | 29.1 | 31.1 | 0.96 | 2.53 | 2 | 649 | 2890 | 3.89 | 7 | 18700 | 43000 | 1.77 | 1 | 43300 | 0.92 |  |  | 
